The source of these data is patent US11986471B2, “Compounds and methods of use” (Tango Therapeutics, Inc., priority 2018, dated 2024).

Usually pIC50 stands for the negative decadic logarithm of the IC50, by convention in mol/L.

pIC50: −log10 of the molar value.

Assay [1] deals with T1, PRMT5 (Homo sapiens, UniProt O14744).
T1 construct: purchased Viva (custom protein)
Nature of the assay: PRMT5 IC50 assay in the presence of SAM as cofactor. The assay is classed as biochemical. A digest of the protocol: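 Potency against PRMT5 is compared across cofactor states, where IC50 equals Ki×1.5 with SAM present and Ki×13.5 with MTA present.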

The target in assay [2] is T1, PRMT5. Briefly: PRMT5 IC50 assay with no cofactor. The assay is classed as biochemical. In short, it runs like this: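 Results given as IC50 (μM), from which Ki follows by dividing by 1.5 in the SAM condition or by 13.5 in the MTA condition. The ratio of SAM Ki to MTA Ki indicates MTA-cooperative preference.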
The target in assay [3] is T1, PRMT5. Nature of the assay: PRMT5 IC50 assay in the presence of MTA as cofactor. The note with it: for pIC50: PRMT5, MTA as cofactor. The assay is classed as biochemical. A digest of the protocol: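 Three cofactor conditions tested for PRMT5 inhibition: none, MTA and SAM, each giving an IC50. For conversion to Ki, the MTA-condition IC50 is divided by 13.5 and the SAM-condition IC50 by 1.5, and the two Ki values are expressed as a SAM/MTA ratio.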

The test system of the next assay is HAP1 MTAP-intact. Briefly: SDMA in-cell western assay, HAP1 MTAP-intact cell line. The assay is classed as cell-based. The note with it: Homo sapiens. The source says:
Table 1a also indicates IC50 values in an MTAP-isogenic cell line pair for exemplary compounds in an SDMA in-cell western assay (columns 7-8). HAP1 MTAP-intact is a cell line in which endogenous levels of MTAP are expressed, and HAP1 MTAP-deleted is an MTAP-null cell line. […] Compounds with a ratio in the SDMA in-cell western assay of equal to or greater than 3 fold are considered MTAP-selective.

In the next assay the test system is HAP1 MTAP-deleted. Nature of the assay: SDMA in-cell western assay, HAP1 MTAP-deleted cell line. The assay is classed as cell-based. The settings on record: for pIC50: Homo sapiens, HAP1 MTAP-deleted cell line; for MTAP Intact/Deleted Ratio: IC50 ratio HAP1 MTAP-intact / HAP1 MTAP-deleted. The source says: Table 1a also indicates IC50 values in an MTAP-isogenic cell line pair for exemplary compounds in an SDMA in-cell western assay (columns 7-8). HAP1 MTAP-intact is a cell line in which endogenous levels of MTAP are expressed, and HAP1 MTAP-deleted is an MTAP-null cell line.

Where [4] appears, read: ratio between Ki in the presence of SAM and Ki in the presence of MTA.
The mark [5] stands for this setting: ratio between the Ki in the presence of SAM and the Ki in the presence of MTA.

T1 sequence (O14744 whole entry): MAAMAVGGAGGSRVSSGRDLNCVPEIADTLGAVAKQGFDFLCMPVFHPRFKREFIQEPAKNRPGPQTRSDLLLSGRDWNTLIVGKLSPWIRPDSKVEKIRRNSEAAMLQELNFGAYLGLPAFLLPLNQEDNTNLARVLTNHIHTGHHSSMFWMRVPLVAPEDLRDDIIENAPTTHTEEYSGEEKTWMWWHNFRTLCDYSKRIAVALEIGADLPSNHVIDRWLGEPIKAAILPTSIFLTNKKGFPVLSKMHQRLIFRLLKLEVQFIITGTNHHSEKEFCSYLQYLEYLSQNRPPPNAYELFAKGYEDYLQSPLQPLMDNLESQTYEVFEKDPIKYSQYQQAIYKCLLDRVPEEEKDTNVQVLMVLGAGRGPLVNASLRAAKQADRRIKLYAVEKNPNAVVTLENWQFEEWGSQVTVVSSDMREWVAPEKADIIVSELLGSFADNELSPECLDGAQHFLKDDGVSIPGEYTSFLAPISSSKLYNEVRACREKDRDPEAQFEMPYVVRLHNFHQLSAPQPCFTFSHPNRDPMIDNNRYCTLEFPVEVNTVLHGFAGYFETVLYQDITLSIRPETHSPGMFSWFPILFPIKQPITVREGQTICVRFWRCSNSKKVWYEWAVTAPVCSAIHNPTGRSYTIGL
T1 sequence (Q9BQA1 whole entry partner): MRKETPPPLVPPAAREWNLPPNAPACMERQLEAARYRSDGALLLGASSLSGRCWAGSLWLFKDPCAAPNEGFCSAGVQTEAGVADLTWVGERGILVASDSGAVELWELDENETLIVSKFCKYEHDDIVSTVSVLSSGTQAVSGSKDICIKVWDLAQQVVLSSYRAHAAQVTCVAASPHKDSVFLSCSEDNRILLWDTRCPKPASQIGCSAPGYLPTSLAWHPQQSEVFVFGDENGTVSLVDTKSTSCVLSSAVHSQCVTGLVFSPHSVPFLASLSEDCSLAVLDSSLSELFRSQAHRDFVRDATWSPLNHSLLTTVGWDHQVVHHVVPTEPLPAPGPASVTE

On to `Cc1ncoc1COc1ccc2c(c1Br)CCN(C[C@@H](O)CNC(=O)c1ccnc(NC3CCCC3)c1)C2` [Compound 350, (S)—N-(3-(5-bromo-6-((4-methyloxazol-5-yl)methoxy)-3,4-dihydroisoquinolin-2(1H)-yl)-2-hydroxypropyl)-2-(cyclopentylamino)isonicotinamide], for which the negative-log IC50 (pIC50) on PRMT5 [1] was 6.30 to 7.30; on PRMT5 [2] (read-out: No Co-factor IC50) it was ≤ 5.30; on PRMT5 [3], 6.30 to 7.30; in the assay on HAP1 MTAP-intact, ≤ 5.00; in the assay on HAP1 MTAP-deleted, ≤ 5.00. On PRMT5 [3] (setting [4]), the “SAM/MTA Ratio” value is “A (a Ki ratio greater than or equal to 10 fold between the Ki in the presence of SAM and the Ki in the presence of MTA)”. In the assay on HAP1 MTAP-deleted, the “MTAP Intact/Deleted Ratio” value is “C* (an IC50 ratio of less than 3 fold between the IC50 in the HAP1 MTAP-intact cell line and the HAP1 MTAP-deleted cell line)”.
For the molecule `Cc1ncoc1COc1ccc2c(c1)CCN(C[C@@H](O)CNC(=O)c1cc(NC3COC3)nc(N3CCN(C(C)(C)C)CC3)n1)C2` [Compound 396, 2-(4-tert-butylpiperazin-1-yl)-N-[(2S)-2-hydroxy-3-(6-[(4-methyl-1,3-oxazol-5-yl)methoxy]-1,2,3,4-tetrahydroisoquinolin-2-yl}propyl]-6-[(oxetan-3-yl)amino]pyrimidine-4-carboxamide], the pIC50 was 6.30 to 7.30 on PRMT5 [1]; 5.30 to 6.30 at PRMT5 [2] (read-out: No Co-factor IC50); 6.30 to 7.30 on PRMT5 [3]; 5.00 to 6.00 in the assay on HAP1 MTAP-intact; > 6.00 with HAP1 MTAP-deleted. For the same molecule, on PRMT5 [3] (setting [4]), the “SAM/MTA Ratio” value was “A (a Ki ratio greater than or equal to 10 fold between the Ki in the presence of SAM and the Ki in the presence of MTA)”. In addition, the “MTAP Intact/Deleted Ratio” value in the assay on HAP1 MTAP-deleted was “C* (an IC50 ratio of less than 3 fold between the IC50 in the HAP1 MTAP-intact cell line and the HAP1 MTAP-deleted cell line)”.
In the case of `CCCN(C)c1nc(NC2COC2)cc(C(=O)NC[C@H](O)CN2CCc3c(ccc(OCc4ocnc4C)c3C)C2)n1` [Compound 465, N-[(2K)-2-hydroxy-3-{5-methyl-6-[(4-methyl-1,3-oxazol-5-yl)methoxy]-1,2,3,4-tetrahydroisoquinolin-2-yl}propyl]-2-[methyl(propyl)amino]-6-[(oxetan-3-yl)amino]pyrimidine-4-carboxamide], the pIC50 at PRMT5 [1] was 6.30 to 7.30; on PRMT5 [2], ≤ 5.30; on PRMT5 [3], 6.30 to 7.30; in the assay with HAP1 MTAP-intact, ≤ 5.00; in the assay with HAP1 MTAP-deleted it was 5.00 to 6.00. In addition, the “SAM/MTA Ratio” value on PRMT5 [3] (setting [5]) is “A (a Ki ratio greater than or equal to 10 fold between the Ki in the presence of SAM and the Ki in the presence of MTA)”. Besides, the “MTAP Intact/Deleted Ratio” value in the assay with HAP1 MTAP-deleted is “B* (an IC50 ratio greater than or equal to 3 fold but lower than 10 fold between the IC50 in the HAP1 MTAP-intact cell line and the HAP1 MTAP-deleted cell line)”.
As to `CC(C)C(=O)N1CCN(c2nc(NC3COC3)cc(C(=O)NC[C@H](O)CN3CCc4c(ccc(OCc5cnco5)c4Cl)C3)n2)CC1` [Compound 323, (S)—N-(3-(5-chloro-6-(oxazol-5-ylmethoxy)-3N-dihydroisoquinolin-2(1H)-yl)-2-hydroxypropyl)-2-(4-isobutyrylpiperazin-1-yl)-6-(oxetan-3-ylamino)pyrimidine-4-carboxamide], the pIC50 at PRMT5 [1] was 6.30 to 7.30; on PRMT5 [2] (read-out: No Co-factor IC50) it was 5.30 to 6.30; on PRMT5 [3], 6.30 to 7.30; in the assay with HAP1 MTAP-intact, ≤ 5.00; with HAP1 MTAP-deleted, 5.00 to 6.00. Further, the “SAM/MTA Ratio” value at PRMT5 [3] (setting [4]) is “A (a Ki ratio greater than or equal to 10 fold between the Ki in the presence of SAM and the Ki in the presence of MTA)”. In the assay with HAP1 MTAP-deleted, the “MTAP Intact/Deleted Ratio” value was “B* (an IC50 ratio greater than or equal to 3 fold but lower than 10 fold between the IC50 in the HAP1 MTAP-intact cell line and the HAP1 MTAP-deleted cell line)”.
`CC(=O)N1CCC(Nc2cc(C(=O)NC[C@H](O)CN3CCc4c(ccc(OCc5cnco5)c4Cl)C3)ncn2)CC1` [Compound 241, (S)-6-((1-acetylpiperidin-4-yl)amino)-N-(3-(5-chloro-6-(oxazol-5-ylmethoxy)-3,4-dihydroisoquinolin-2(1H)-yl)-2-hydroxypropyl)pyrimidine-4-carboxamide]: the pIC50 is 6.30 to 7.30 at PRMT5 [1]; 5.30 to 6.30 at PRMT5 [2] (read-out: No Co-factor IC50); 6.30 to 7.30 at PRMT5 [3]; ≤ 5.00 in the assay with HAP1 MTAP-intact; 5.00 to 6.00 with HAP1 MTAP-deleted. The “SAM/MTA Ratio” value at PRMT5 [3] (setting [4]) was “A (a Ki ratio greater than or equal to 10 fold between the Ki in the presence of SAM and the Ki in the presence of MTA)”. For the same molecule, in the assay with HAP1 MTAP-deleted, the “MTAP Intact/Deleted Ratio” value is “C* (an IC50 ratio of less than 3 fold between the IC50 in the HAP1 MTAP-intact cell line and the HAP1 MTAP-deleted cell line)”.
As to `O=C(NC[C@H](O)CN1CCc2c(ccc(OCc3cnco3)c2Cl)C1)c1cc(NC2CCC2)nc(N2CCNCC2)c1` [Compound 464, (S)—N-(3-(5-chloro-6-(oxazol-5-ylmethoxy)-3,4-dihydroisoquinolin-2(1H)-yl)-2-hydroxypropyl)-2-(cyclobutylamino)-6-(piperazin-1-yl)isonicotinamide], the pIC50 at PRMT5 [1] is 6.30 to 7.30; on PRMT5 [2] it was 5.30 to 6.30; at PRMT5 [3] it was 6.30 to 7.30; with HAP1 MTAP-intact, ≤ 5.00; in the assay with HAP1 MTAP-deleted, ≤ 5.00. Besides, on PRMT5 [3] (setting [5]), the “SAM/MTA Ratio” value is “A (a Ki ratio greater than or equal to 10 fold between the Ki in the presence of SAM and the Ki in the presence of MTA)”. In the assay with HAP1 MTAP-deleted, the “MTAP Intact/Deleted Ratio” value was “C* (an IC50 ratio of less than 3 fold between the IC50 in the HAP1 MTAP-intact cell line and the HAP1 MTAP-deleted cell line)”.
Regarding `Cc1ncoc1COc1cc(F)c2c(c1)CCN(C[C@@H](O)CNC(=O)c1ccnc(NC3CCC3)c1)C2` [Compound 506, 2-(cyclobutylamino)-N-[(2S)-3-[8-fluoro-6-[(4-methyloxazol-5-yl)methoxy]-3,4-dihydro-1H-isoquinolin-2-yl]-2-hydroxy-propyl]pyridine-4-carboxamide], the pIC50 on PRMT5 [1] is 6.30 to 7.30; on PRMT5 [2], ≤ 5.30; on PRMT5 [3] it was 6.30 to 7.30; in the assay on HAP1 MTAP-intact it was ≤ 5.00; in the assay with HAP1 MTAP-deleted, 5.00 to 6.00. Also, the “SAM/MTA Ratio” value on PRMT5 [3] (setting [5]) was “A (a Ki ratio greater than or equal to 10 fold between the Ki in the presence of SAM and the Ki in the presence of MTA)”. In the assay on HAP1 MTAP-deleted, the “MTAP Intact/Deleted Ratio” value is “B* (an IC50 ratio greater than or equal to 3 fold but lower than 10 fold between the IC50 in the HAP1 MTAP-intact cell line and the HAP1 MTAP-deleted cell line)”.
As to `CC(=O)N1CCC(Nc2cc(C(=O)NC[C@H](O)CN3CCc4c(ccc(OCc5ocnc5C)c4C)C3)cc(N3CCN(C(C)=O)CC3)n2)CC1` [Compound 590, 2-(4-acetylpiperazin-1-yl)-6-[(1-acetylpiperidin-4-yl)amino]-N-[(2S)-2-hydroxy-3-{5-methyl-6-[(4-methyl-1,3-oxazol-5-yl)methoxy]-1,2,3,4-tetrahydroisoquinolin-2-yl}propyl]pyridine-4-carboxamide], the pIC50 is 6.30 to 7.30 at PRMT5 [1]; 5.30 to 6.30 against PRMT5 [2]; 6.30 to 7.30 on PRMT5 [3]; ≤ 5.00 with HAP1 MTAP-intact; 5.00 to 6.00 in the assay with HAP1 MTAP-deleted. The “SAM/MTA Ratio” value on PRMT5 [3] (setting [5]) was “A (a Ki ratio greater than or equal to 10 fold between the Ki in the presence of SAM and the Ki in the presence of MTA)”. Besides, the “MTAP Intact/Deleted Ratio” value in the assay on HAP1 MTAP-deleted is “C* (an IC50 ratio of less than 3 fold between the IC50 in the HAP1 MTAP-intact cell line and the HAP1 MTAP-deleted cell line)”.
Turning to `Cc1c(OCc2cnco2)ccc2c1CCN(C[C@@H](O)CNC(=O)c1ccnc(NC3CCN(S(C)(=O)=O)CC3)c1)C2` [Compound 386, (S)—N-(2-hydroxy-3-(5-methyl-6-(oxazol-5-ylmethoxy)-3N-dihydroisoquinolin-2(1H)-yl)propyl)-2-((1-(methylsulfonyl)piperidin-4-yl)amino)isonicotinamide], the pIC50 at PRMT5 [1] was 6.30 to 7.30; at PRMT5 [2] (read-out: No Co-factor IC50) it was 5.30 to 6.30; at PRMT5 [3], 6.30 to 7.30; in the assay on HAP1 MTAP-intact, ≤ 5.00; in the assay on HAP1 MTAP-deleted, 5.00 to 6.00. The “SAM/MTA Ratio” value at PRMT5 [3] (setting [4]) was “A (a Ki ratio greater than or equal to 10 fold between the Ki in the presence of SAM and the Ki in the presence of MTA)”. For the same molecule, in the assay on HAP1 MTAP-deleted, the “MTAP Intact/Deleted Ratio” value is “C* (an IC50 ratio of less than 3 fold between the IC50 in the HAP1 MTAP-intact cell line and the HAP1 MTAP-deleted cell line)”.
For `CC(C)(C)c1cc(C(=O)NC[C@H](O)CN2CCc3cc(OCc4cnco4)ccc3C2)cc(NC2CCC2)n1` [Compound 308, (S)-2-(tert-butyl)-6-(cyclobutylamino)-N-(2-hydroxy-3-(6-(oxazol-5-ylmethoxy)-3,4-dihydroisoquinolin-2(1H)-yl)propyl)isonicotinamide], the pIC50 on PRMT5 [1] is 5.30 to 6.30; at PRMT5 [2] (read-out: No Co-factor IC50), ≤ 5.30; at PRMT5 [3], 5.30 to 6.30; in the assay on HAP1 MTAP-intact, ≤ 5.00; in the assay with HAP1 MTAP-deleted, ≤ 5.00. Also, at PRMT5 [3] (setting [4]), the “SAM/MTA Ratio” value was “A (a Ki ratio greater than or equal to 10 fold between the Ki in the presence of SAM and the Ki in the presence of MTA)”. In the assay on HAP1 MTAP-deleted, the “MTAP Intact/Deleted Ratio” value is “C* (an IC50 ratio of less than 3 fold between the IC50 in the HAP1 MTAP-intact cell line and the HAP1 MTAP-deleted cell line)”.
